SMILES strings stand for the structures.

One may read the IC50 as the concentration at which inhibition is half-maximal. A word on the EC50: it is the concentration that produces a half-maximal response.

For one assay, the target named is PD-1/PD-L1 (Homo sapiens, UniProt Q9NZQ7). The experiment in a line: PD-1/PD-L1 biochemical protein-protein interaction assay (ALPHA). In kind it is binding. The conditions noted are these: 0.3 nM His tagged PD-L1, 2.5 nM biotinylated Fc-PD-1, 60 minutes at 25° C., read-out: IC50 PD-L1-PD-1 Alpha IC50-mono PD-L1-fcP-D1. The gist of the method:
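Extracellular-domain binding of His-tagged PD-L1 (0.3 nM final) to biotinylated Fc-PD-1 (2.5 nM final) was measured by ALPHA in 25 mM Hepes pH 7.4, 150 mM NaCl, 3.4 mM EDTA, 0.005% Tween 20, 0.01% BSA. After 60 min at 25° C, anti-His acceptor and streptavidin donor beads were added; IC50 from four-parameter fits.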

The next assay concerns the target T1, PD-1/PD-L1 interaction (Homo sapiens, UniProt Q9NZQ7).
T1 construct: expressed in transfected cells; host or cells: CHO cells (aAPC-PD-L1) co-cultured with Jurkat cells overexpressing PD-1 and an NFAT-luciferase reporter
The experiment in a line: PD-1/PD-L1 NFAT reporter co-culture assay. In kind it is cell-based. The conditions noted are these: Jurkat PD-1 NFAT-luciferase cells co-cultured with aAPC-PD-L1 CHO cells, 6 hrs at 37° C.; read-out: EC50 NFAT Luciferase. In short, it runs like this:
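CHO aAPC-PD-L1 seeded overnight; PD-1/NFAT-luc Jurkat + cpd in RPMI 1640, 2% FBS added at once; 6 h, 37 °C; ONE-Glo luminescence; EC50, 4-parameter fit.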

Assay [1] addresses T2, interaction between the recombinant extracellular domain (ECD) of PD-1 and native cell-bound PD-L1 (Homo sapiens, UniProt Q9NZQ7).
T2 construct: expressed in transfected cells
Kind of assay: CHO/PD-L1 cell capture assay. The assay is classed as cell-based. The conditions noted are these: CHO cells overexpressing PD-L1, pre-incubated 1 hr with compound, captured on biotinylated Fc-PD-1 coated plates, 75 min at room temperature. How it is done:
EC50-CHO/PD-L1-Capture Assay:
Compounds were tested in a cell capture assay to determine if they can specifically block the interaction between the recombinant extracellular domain (ECD) of PD-1 and native cell-bound PD-L1. Binding affinity of stable CHO cells overexpressing PD-L1 with its cognate recombinant ligand coated on plates was measured by counting the number of ‘captured’ cells. High-capacity streptavidin- coated plates were incubated with biotylated-Fc-PD-1 for 2 hours in PBS. Unbound ligand was washed out. CHO-PD-L1 cells (resuspended in PBS pH 7.4, 0.5 mM EDTA, and 2% bovine serum albumin) were pre-incubated for 1 hr with compound, dispensed into each PD-1 ECD coated well and then incubated for 75 min at room temperature. To stop the capture assay, a fixative/staining solution (final concentrations are 1.3% glutaraldehyde and 1.67 μM Draq5) was gently added to the cells and incubated for 2 hrs at room temperature. Unbound cells were then washed out and ‘captured’ cells were enumerated using a high-content microscopy system. EC50 values were calculated from the fit of the dose-response curves to a four-parameter equation. Representative data are shown below in Table 2.

T2 sequence (Q9NZQ7 19-290): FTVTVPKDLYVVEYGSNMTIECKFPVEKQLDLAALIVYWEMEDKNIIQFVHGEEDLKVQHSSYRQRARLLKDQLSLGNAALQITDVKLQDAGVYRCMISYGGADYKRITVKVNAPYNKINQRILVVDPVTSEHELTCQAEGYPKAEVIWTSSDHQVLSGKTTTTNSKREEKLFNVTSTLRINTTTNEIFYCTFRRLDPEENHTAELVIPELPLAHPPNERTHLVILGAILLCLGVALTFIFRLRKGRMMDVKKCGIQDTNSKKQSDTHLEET
T1 sequence (Q9NZQ7 19-290): as above
Sequence of PD-1/PD-L1 (Q9NZQ7 19-238 limits assumed): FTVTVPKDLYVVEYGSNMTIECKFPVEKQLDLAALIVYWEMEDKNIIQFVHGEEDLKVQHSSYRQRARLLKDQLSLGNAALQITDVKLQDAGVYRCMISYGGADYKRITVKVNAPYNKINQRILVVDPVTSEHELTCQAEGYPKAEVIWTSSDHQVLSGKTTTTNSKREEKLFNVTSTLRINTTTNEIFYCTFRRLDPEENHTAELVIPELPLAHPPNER

For the molecule `COc1nc(OCc2cccc(-c3cccc(COc4nc(OC)c(CNC[C@@H](O)CC(=O)O)cc4Br)c3C)c2C)c(Br)cc1CNC[C@@H](O)CC(=O)O` [Example 113, (3S,3′S)-4,4′-((((((2,2′-dimethyl-[1,1′-biphenyl]-3,3′-diyl)bis(methylene))bis(oxy))bis(5-bromo-2-methoxypyridine-6,3-diyl))bis(methylene))bis(azanediyl))bis(3-hydroxybutanoic acid)], at PD-1/PD-L1, the IC50 was 0.0006 µM. Also, the EC50 on PD-1/PD-L1 interaction is 0.193 µM; in assay [1], 0.148 µM.

With `COc1nc(OCc2cccc(-c3cccc(COc4nc(OC)c(CNC[C@@H](O)CC(=O)O)cc4Cl)c3C)c2C)c(Cl)cc1CNC[C@@H](O)CC(=O)O` [Example 29, (3S,3′S)-4,4′-((((((2,2′-dimethyl-[1,1′-biphenyl]-3,3′-diyl)bis(methylene))bis(oxy))bis(5-chloro-2-methoxypyridine-6,3-diyl))bis(methylene))bis(azanediyl))bis(3-hydroxybutanoic acid)], the IC50 at PD-1/PD-L1 is 0.0008 µM. In addition, the EC50 worked out at 0.244 µM on PD-1/PD-L1 interaction and 0.218 µM in assay [1].

As for `COc1nc(OCc2cccc(-c3cccc(COc4nc(OC)c(CN(CCCC(N)=O)CC(=O)O)cc4Br)c3C)c2C)c(Br)cc1CNCCCC(N)=O` [Example 118, N-(4-amino-4-oxobutyl)-N-((6-((3′-(((5-(((4-amino-4-oxobutyl)amino)methyl)-3-bromo-6-methoxypyridin-2-yl)oxy)methyl)-2,2′-dimethyl-[1,1′-biphenyl]-3-yl)methoxy)-5-bromo-2-methoxypyridin-3-yl)methyl)glycine], the EC50 on PD-1/PD-L1 interaction was determined as 0.823 µM; in assay [1], 0.169 µM.

`Cc1c(COc2nc(OCc3cc(C#N)cc(C#N)c3)c(CNC[C@@H](O)CC(=O)O)cc2Cl)cccc1-c1cccc(COc2nc(OCc3cc(C#N)cc(C#N)c3)c(CNC[C@@H](O)CC(=O)O)cc2Cl)c1C` [Example 122, (3S,3′S)-4,4′-((((((2,2′-dimethyl-[1,1′-biphenyl]-3,3′-diyl)bis(methylene))bis(oxy))bis(5-chloro-2-((3,5-dicyanobenzyl)oxy)pyridine-6,3-diyl))bis(methylene))bis(azanediyl))bis(3-hydroxybutanoic acid)]: the EC50 on PD-1/PD-L1 interaction was 0.079 µM; in assay [1], 0.192 µM.

`COc1nc(O[C@H]2CCc3c(-c4cccc5c4CC[C@@H]5Oc4nc(OC)c(CNC[C@@H](O)CC(=O)O)cc4Br)cccc32)c(Br)cc1CNCCO` [Example 8, (S)-4-(((5-bromo-6-(((1S,1′S)-1′-((3-bromo-5-(((2-hydroxyethyl)amino)methyl)-6-methoxypyridin-2-yl)oxy)-2,2′,3,3′-tetrahydro-1H,1′H-[4,4′-biinden]-1-yl)oxy)-2-methoxypyridin-3-yl)methyl)amino)-3-hydroxybutanoic acid]: the EC50 at PD-1/PD-L1 interaction amounted to 0.29 µM; in assay [1], 0.0797 µM.

Turning to `COc1nc(OCc2cccc(-c3cccc(COc4nc(OC)c(CNC[C@H](O)CC(=O)O)cc4C4CC4)c3C)c2C)c(C2CC2)cc1CNC[C@H](O)CC(=O)O` [Example 54, (3R,3′R)-4,4′-((((((2,2′-dimethyl-[1,1′-biphenyl]-3,3′-diyl)bis(methylene))bis(oxy))bis(5-cyclopropyl-2-methoxypyridine-6,3-diyl))bis(methylene))bis(azanediyl))bis(3-hydroxybutanoic acid)], the results for the EC50 (on PD-1/PD-L1 interaction; in assay [1]) were 0.997 µM and 0.233 µM, respectively.

As for `COc1nc(OCc2cccc(-c3cccc(COc4nc(OC)c(CN5CCC[C@@H]5C(=O)O)cc4Cl)c3C)c2C)c(Cl)cc1CN1CCC[C@@H]1C(=O)O` [Example 234, (2′R)-(((((2,2′-dimethyl-[1,1′-biphenyl]-3,3′-diyl)bis(methylene))bis(oxy))bis(5-chloro-2-methoxypyridine-6,3-diyl))bis(methylene))di-D-proline], the EC50 was determined as 0.444 µM on PD-1/PD-L1 interaction and 0.132 µM in assay [1].

On to `COc1nc(OCc2cccc(-c3cccc(COc4nc(OC)c(C[N+](C)(C)CC(=O)O)cc4Cl)c3C)c2C)c(Cl)cc1C[N+](C)(C)CC(=O)O` [Example 78, 1,1′-((((2,2′-dimethyl-[1,1′-biphenyl]-3,3′-diyl)bis(methylene))bis(oxy))bis(5-chloro-2-methoxypyridine-6,3-diyl))bis(N-(carboxymethyl)-N,N-dimethylmethanaminium)], for which the EC50 on PD-1/PD-L1 interaction was 0.395 µM; in assay [1], 0.187 µM.

As to `Cc1c(COc2cc(OCc3cncc(C#N)c3)c(CNC[C@@H](O)CC(=O)O)cc2Cl)cccc1-c1cccc(-c2ccc(OCCNC[C@@H](O)CC(=O)O)c(C(F)(F)F)c2)c1C` [Example 94, (S)-4-((4-((4″-(2-(((S)-3-carboxy-2-hydroxypropyl)amino)ethoxy)-2,2′-dimethyl-3″-(trifluoromethyl)-[1,1′:3′,1″-terphenyl]-3-yl)methoxy)-5-chloro-2-((5-cyanopyridin-3-yl)methoxy)benzyl)amino)-3-hydroxybutanoic acid], the EC50 on PD-1/PD-L1 interaction worked out at 0.21 µM; in assay [1] it was 0.228 µM.

As to `COc1cc(OCc2cccc(-c3cccc(COc4cc(OCc5cncc(C#N)c5)c(CNCC(=O)O)cc4Cl)c3C)c2C)c(Cl)cc1CNCC(=O)O` [Example 217, (4-((3′-((4-(((carboxymethyl)amino)methyl)-2-chloro-5-((5-cyanopyridin-3-yl)methoxy)phenoxy)methyl)-2,2′-dimethyl-[1,1′-biphenyl]-3-yl)methoxy)-5-chloro-2-methoxybenzyl)glycine], the EC50 at PD-1/PD-L1 interaction worked out at 0.589 µM; in assay [1], 0.0716 µM.

With `C[C@](CO)(NCc1cc(Br)c(OCc2cccc(-c3cccc(COc4nc(OCc5cncc(C#N)c5)c(CN[C@](C)(CO)C(=O)O)cc4Br)c3Cl)c2Cl)nc1OCc1cncc(C#N)c1)C(=O)O` [Example 198, (2R,2′R)-2,2′-((((((2,2′-Dichloro-[1,1′-biphenyl]-3,3′-diyl)bis(methylene))bis(oxy))bis(5-bromo-2-((5-cyanopyridin-3-yl)methoxy)pyridine-6,3-diyl))bis(methylene))bis(azanediyl))bis(3-hydroxy-2-methylpropanoic acid)], the EC50 at PD-1/PD-L1 interaction worked out at 0.069 µM; in assay [1], 0.101 µM.

In the case of `Cc1c(COc2cc(OCc3cncc(C#N)c3)c(CNC[C@@H](O)CC(=O)O)cc2Cl)cccc1-c1cccc(-c2ccc3cc(CNC[C@@H](O)CC(=O)O)ccc3c2)c1C` [Example 31, (S)-4-(((6-(3′-((4-((((S)-3-carboxy-2-hydroxypropyl)amino)methyl)-2-chloro-5-((5-cyanopyridin-3-yl)methoxy)phenoxy)methyl)-2,2′-dimethyl-[1,1′-biphenyl]-3-yl)naphthalen-2-yl)methyl)amino)-3-hydroxybutanoic acid], the EC50 on PD-1/PD-L1 interaction was determined as 0.687 µM; in assay [1], 0.0301 µM.

For the molecule `Cc1c(COc2nc(OCCC(N)=O)c(CNC[C@@H](O)CC(=O)O)cc2Br)cccc1-c1cccc(COc2nc(OCCC(N)=O)c(CNC[C@@H](O)CC(=O)O)cc2Br)c1C` [Example 145, (3S,3′S)-4,4′-((((((2,2′-dimethyl-[1,1′-biphenyl]-3,3′-diyl)bis(methylene))bis(oxy))bis(2-(3-amino-3-oxopropoxy)-5-bromopyridine-6,3-diyl))bis(methylene))bis(azanediyl))bis(3-hydroxybutanoic acid)], the EC50 at PD-1/PD-L1 interaction is 0.362 µM; in assay [1], 0.0636 µM.

Consider `COc1nc(OCc2cccc(-c3cccc(COc4nc(OC)c(CN5CC[C@@H](O)C[C@H]5C(=O)O)cc4Cl)c3C)c2C)c(Cl)cc1CN1CC[C@@H](O)C[C@H]1C(=O)O` [Example 47, (2S,2′S,4R,4′R)-1,1′-(((((2,2′-dimethyl-[1,1′-biphenyl]-3,3′-diyl)bis(methylene))bis(oxy))bis(5-chloro-2-methoxypyridine-6,3-diyl))bis(methylene))bis(4-hydroxypiperidine-2-carboxylic acid)], for which the EC50 at PD-1/PD-L1 interaction worked out at 0.503 µM; in assay [1] it was 0.226 µM.

Regarding `COc1nc(O[C@H]2CCc3c(-c4cccc5c4CC[C@@H]5Oc4nc(OC)c(CNCC(=O)O)cc4Cl)cccc32)c(Cl)cc1CNCC(=O)O` [Example 2, 2,2′-((((((1S,1′S)-2,2′,3,3′-tetrahydro-1H,1′H-[4,4′-biindene]-1,1′-diyl)bis(oxy))bis(5-chloro-2-methoxypyridine-6,3-diyl))bis(methylene))bis(azanediyl))diacetic acid], the EC50 on PD-1/PD-L1 interaction was determined as 0.456 µM; in assay [1], 1.27 µM.

For the origin of these results see patent US12590062B2, “PD-1/PD-L1 inhibitors” (Gilead Sciences, Inc., priority 2017, dated 2026).
